Experiments:
[1] = test system: MV-4-11; assay: Oncology cell growth assay, MV-4-11 3 d growth; format: cell-based; settings: Homo sapiens, MV4-11; MV-4-11 cells, 72 hours, CellTiter Glo; read-out: Cell activity (IC50 μM) MV-4-11 3 d-Growtb
Procedure: In this study, we test compounds in different cancer cell lines. MV-4-11 and MOLM-13 are AML cell lines harboring a MLL-AF4 and MLL-AF9 translocation, respectively. MM.1S is a multiple myeloma cell line. SK—N-AS, IMR-32 and SK-N-BE(2) are neuroblastoma cell lines. IMR-32 and SK-N-BE(2) cell lines harbor MYCN amplifications.
MV-4-11, MM.1S, IMR-32, SK-N-AS and SK-N-BE(2) were obtained from ATCC (IL, USA) and MOLM-13 were purchased from DSMZ (Braunschweig, German). Cells are cultured as recommended by their sources. For growth inhibition studies 3000 cells are seeded in wells of a 96-well plate in 75 μL of culture media. After several hours, growth media containing compounds of formula (I) are added to the wells. Compound at a maximal concentration of 5 mM was serially diluted 1:3 for a total of 8 point titration with DMSO as a control. A 1 μL aliquot of each dilution point is added to 249 μL growth media and 75 μL is added to each well containing cells, providing 10 μM compound at the maximum concentration point. The final concentration of DMSO in all wells is 0.2%. Cells are incubated for 72 hours, and 25 μL of CellTiter Glo Reagent (Promega Ga., USA) is added to each well. Plates are shaken for approximately 10 minutes and chemiluminescent signal is read on Tecan microplate reader. The measured luminescence correlates directly with cell number.
All data is normalized to the mean of eight DMSO high control wells on each plate. A four parameter curve fit of the following formula was then applied: Y=a+(b−a)/(1+(x/c)^d) Where ‘a’ is the minimum, ‘b’ is the maximum, ‘c’ is the pIC50 and ‘d’ is the Hill slope. […] Myc Reporter Assay

[2] = test system: cancer cell lines / MV-4-11 Myc reporter cell line; assay: Bromodomain cell assays of Example 8 (at least one of them); format: cell-based; settings: Homo sapiens, MV4-11; at least one of the bromodomain cell assays described in Example 8
How it was run: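 Antiproliferation: 3000 cells/well, 8-point 1:3 titration from 10 µM final, 0.2% DMSO, 72 h, CellTiter Glo luminescence. Myc reporter: MV-4-11 with E-box firefly luciferase, 25,000 cells, same titration, 24 h; One-Glo luminescence with CellTiter-Fluo viability; 10 µM JQ1 as low control. pIC50 from four-parameter fit.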

[3] = molecular target: T1, BRD4-BD12 (Homo sapiens, UniProt O60885); assay: Alphascreen binding assay, BRD4(1 2) H4; settings: BRD4 dual bromodomains with acetylated Histone 4 peptide, read-out: Biochemical activity (IC50 μM) BRD4(1 2) H4
T1 construct: dual bromodomains (BRD4-BD12 (1-477), BRD4-BD12 (1-472)); six-His tag (N); made in house; host or cells: E. coli BL21-CodonPlus (DE3)
Procedure: Binding of compounds of formula (I) with bromodomain 2, 3 4 was assessed using Alphascreen binding assay. The inhibition of the interaction between bromodomain and its acetylated target protein (Filippakopoulos P et al. 2012) was measured quantitatively using recombinant BRD proteins, an acetylated Histone 4 peptide and AlphaScreen™ technology. In absence of inhibition the BRD protein bound to AlphaScreen™ nickel chelate acceptor beads can interact with the acetylated Histone 4 peptide which is immobilized by the AlphaScreen™ Streptavidin coated beads. This interaction brings donor and acceptor beads in proximity. The close proximity allows the singlet oxygen produced by laser excitation of the donor beads to reach the acceptor beads and generate a luminescence signal. BRD inhibitors result in a decrease in the proximity signal through an inhibition of the BRD acetylated peptide interaction.
Recombinant human bromodomains containing the N-terminal bromodomain (BRD2-BD1 (71-194), BRD3-BD1 (24-144) and BRD4-BD1 (44-164)) or dual bromodomains (BRD4-BD12 (1-477), BRD4-BD12 (1-472)) were prepared and purified as described in protein expression and purification session. The peptide is human Histone H41-21K5AcK8AcK12AcK16Ac-Biotin (Anaspec Calif., USA).
Protocol for BRD2, BRD3 and BRD4 assay: All components are prepared in buffer composed of 50 mM HEPES pH 7.5, 100 mM NaCl, 0.01% BSA, 0.01% Triton X-100, 2 mM DTT. 7 μL of Bromodomain protein and 7 μL of peptide are added to wells containing 1 μL of various concentrations of test compounds of formula (I) or DMSO vehicle in an Alphaplate (PerkinElmer Ga., USA) and incubated for 1 hour at room temperature. 4 μL donor and acceptor bead mixture is then added with final concentrations of 7.5 μg/ml. 30 minutes after bead addition, Alpha signal is read on the Envision spectrometer (λEx 680 nm, λEm 520-620 nm). Final concentrations of bromodomain proteins and peptide are as shown below.
All data was normalized to the mean of 16 high and 16 low control wells on each plate. A four parameter curve fit of the following formula was then applied: Y=a+(b−a)/(1+(x/c)^d) Where ‘a’ is the minimum, ‘b’ is the maximum, ‘c’ is the pIC50 and ‘d’ is the Hill slope. Protein Expression and Purification
Recombinant human bromodomains containing the N-terminal bromodomain (BRD2-BD1 (71-194), BRD3-BD1 (24-144) and BRD4-BD1 (44-164)) or dual bromodomains (BRD4-BD12 (1-477), BRD4-BD12 (1-472)) were expressed in E. coli cells (in a modified pET vector) with an N-terminal six-His tag and purified using a combination of both IMAC (Ni-affinity) and size exclusion chromatography steps.
Recombinant BRD proteins were expressed using the E. coli strain BL21-CodonPlus (DE3) (Agilent Technologies CA, USA). Cells were grown in Terrific Broth (TB) media to an OD600 of 1.2 at 37° C. at which temperature was reduced to 25° C., protein was induced with 1.0 mM IPTG for 12-18 hours and harvested by centrifugation at 8000×g for 20 minutes. Cells were re-suspended in 0.1M KPO4 pH 8.0, 250 mM NaCl, 10% Glycerol, 0.75% NP-40, 25 mM Imidazole, 5 mM BME with 0.2 mg/ml Lysosyme, 2.0 mM PMSF, 25 μg/ml DNAse I, incubated on ice for 30 minutes and lyzed with a cell disruptor (MicroFluidics MA, USA). The lysate was clarified by centrifugation at 20,000×g for 2 hours. The protein was captured with Ni-NTA resin (Life Technologies, USA). Contaminating proteins were washed off with 25 mM Tris-HCl pH 8.3, 250 mM NaCl, 12% Glycerol and 50 mM Imidazole. Following 3× wash steps, protein was eluted step wise using a 50 mM HEPES pH 7.5, 500 mM NaCl and 400 mM Imidazole. The protein was further purified using Gel Filtration column 26/600 Superdex 200 (GE Biosciences N.J., USA) in 50 mM HEPES pH 7.5, 250 mM NaCl. The protein was aliquoted and flash-frozen in liquid Nitrogen.

| SMILES | IC50 [1] [µM] | IC50 [2] [nM] | IC50 [3] [µM] |
| --- | --- | --- | --- |
| Cc1noc(C)c1-c1ccc2c(-c3ccc(CC(=O)O)cc3)nn([C@@H](C)c3ccccn3)c2c1 [Compound P-2014, 2-[4-[6-(3,5-dimethylisoxazol-4-yl)-1-[(1S)-1-(2-pyridyl)ethyl]indazol-3-yl]phenyl]acetic acid] | ≤ 1 | < 10000 | ≤ 1 |
| Cc1noc(C)c1-c1ccc2c(-c3ccc(C(=O)O)cc3)nn([C@@H](C)c3ccccn3)c2c1 [Compound P-2013, 4-[6-(3,5-dimethylisoxazol-4-yl)-1-[(1S)-1-(2-pyridyl)ethyl]indazol-3-yl]benzoic acid] | ≤ 1 | < 10000 | ≤ 1 |
| Cc1noc(C)c1-c1cnc2c(-c3cnn(C(F)F)c3)nn(CC3CCC(F)(F)CC3)c2c1 [Compound P-2082, 4-[1-[(4,4-difluorocyclohexyl)methyl]-3-[1-(difluoromethyl)pyrazol-4-yl]pyrazolo[4,3-b]pyridin-6-yl]-3,5-dimethyl-isoxazole] | ≤ 1 | < 10000 | ≤ 1 |
| [2H]C([2H])(C1CCC(F)(F)CC1)n1cc(-c2ccc(C(=O)OC)cc2)c2ncc(-c3c(C)noc3C)nc21 [Compound P-2043, methyl 4-[5-[dideuterio-(4,4-difluorocyclohexyl)methyl]-3-(3,5-dimethylisoxazol-4-yl)pyrrolo[2,3-b]pyrazin-7-yl]benzoate] | 1 to 10 | < 10000 | ≤ 1 |
| [2H]C([2H])(C1CCC(F)(F)CC1)n1cc(-c2cnn(C)c2)c2ncc(-c3c(C)noc3C)nc21 [Compound P-2040, 4-[5-[dideuterio-(4,4-difluorocyclohexyl)methyl]-7-(1-methylpyrazol-4-yl)pyrrolo[2,3-b]pyrazin-3-yl]-3,5-dimethyl-isoxazole] | ≤ 1 | < 10000 | ≤ 1 |
| COC(=O)Cc1ccc(-c2nn(C(c3ccccc3)c3ccccn3)c3cc(-c4c(C)noc4C)ccc23)cc1 (stereo not drawn) [Compound P-2008, methyl 2-[4-[6-(3,5-dimethylisoxazol-4-yl)-1-[phenyl(2-pyridyl)methyl]indazol-3-yl]phenyl]acetate] | ≤ 1 | < 10000 | ≤ 1 |
| COC(=O)c1ccc(-c2cn([C@@H](C)c3ccccn3)c3nc(-c4c(C)noc4C)cnc23)cc1 [Compound P-2049, methyl 4-[3-(3,5-dimethylisoxazol-4-yl)-5-[(1S)-1-(2-pyridyl)ethyl]pyrrolo[2,3-b]pyrazin-7-yl]benzoate] | ≤ 1 | < 10000 | ≤ 1 |
| Cc1noc(C)c1-c1cnc2c(I)nn(CC3CCC(F)(F)CC3)c2c1 [Compound P-2080, 4-[1-[(4,4-difluorocyclohexyl)methyl]-3-iodo-pyrazolo[4,3-b]pyridin-6-yl]-3,5-dimethyl-isoxazole] | ≤ 1 | < 10000 | ≤ 1 |
| [2H]C([2H])(C1CCC(F)(F)CC1)n1ccc2ncc(-c3[nH]nnc3C)nc21 [Compound P-2041, 5-[dideuterio-(4,4-difluorocyclohexyl)methyl]-3-(4-methyl-1H-triazol-5-yl)pyrrolo[2,3-b]pyrazine] | 1 to 10 | < 10000 | 1 to 10 |
| Cc1noc(C)c1-c1ccc2c(-c3ccc(CC(=O)O)cc3)nn(C(c3ccccc3)c3ccccn3)c2c1 (stereo not drawn) [Compound P-2009, 2-[4-[6-(3,5-dimethylisoxazol-4-yl)-1-[phenyl(2-pyridyl)methyl]indazol-3-yl]phenyl]acetic acid] | ≤ 1 | < 10000 | ≤ 1 |
| COC(=O)Cc1ccc(-c2nn([C@@H](C)c3ccccn3)c3cc(-c4c(C)noc4C)ccc23)cc1 [Compound P-2012, methyl 2-[4-[6-(3,5-dimethylisoxazol-4-yl)-1-[(1S)-1-(2-pyridyl)ethyl]indazol-3-yl]phenyl]acetate] | ≤ 1 | < 10000 | ≤ 1 |
| Cc1noc(C)c1-c1cnc2c(-c3ccc(CC(=O)O)cc3)cn(C(c3ccccc3)c3ccccn3)c2n1 (stereo not drawn) [Compound P-2048, 2-[4-[3-(3,5-dimethylisoxazol-4-yl)-5-[phenyl(2-pyridyl)methyl]pyrrolo[2,3-b]pyrazin-7-yl]phenyl]acetic acid] | ≤ 1 | < 10000 | ≤ 1 |
| Cc1noc(C)c1-c1ccc2c(-c3cnn(CC(F)(F)F)c3)nn(C(c3ccccc3)c3ccccn3)c2c1 (stereo not drawn) [Compound P-2005, 3,5-dimethyl-4-[1-[phenyl(2-pyridyl)methyl]-3-[1-(2,2,2-trifluoroethyl)pyrazol-4-yl]indazol-6-yl]isoxazole] | ≤ 1 | < 10000 | ≤ 1 |
| Cc1noc(C)c1-c1ccc2c(-c3cnn(CC(F)(F)F)c3)nn(CC3CCC(F)(F)CC3)c2c1 [Compound P-2002, 4-[1-[(4,4-difluorocyclohexyl)methyl]-3-[1-(2,2,2-trifluoroethyl)pyrazol-4-yl]indazol-6-yl]-3,5-dimethyl-isoxazole] | ≤ 1 | < 10000 | ≤ 1 |
| COC(=O)Cc1ccc(-c2cn([C@@H](C)c3ccccn3)c3nc(-c4c(C)noc4C)cnc23)cc1 [Compound P-2051, methyl 2-[4-[3-(3,5-dimethylisoxazol-4-yl)-5-[(1S)-1-(2-pyridyl)ethyl]pyrrolo[2,3-b]pyrazin-7-yl]phenyl]acetate] | ≤ 1 | < 10000 | ≤ 1 |
